Tests used:
Test in all cases: ASTM E2315-16 Time-Kill Procedure
Type in all cases: cell-based
[1] = test system: Staphylococcus epidermidis
Protocol: (§1) Select compounds were tested for antimicrobial activity using ASTM method […]-16 (Standard Guide for Assessment of Antimicrobial Activity using a Time-Kill Procedure). Six microbes were tested: Candida albicans, Staphylococcus aureus, Staphylococcus epidermidis. Escherichia coli, Salmonella abony, and Listeria monocytogenes. Four chlorhexidine salts were tested: chlorhexidine di-α-glucoheptonate (Sample G), chlorhexidine di-β73-glucoheptonate (Sample H), chlorhexidine digluconate (Sample I), and chlorhexidine diacetate (Sample P). Both chlorhexidine diglucoheptonate salts were prepared at a 2:1 molar ratio of glucoheptonic acid to chlorhexidine. Dilutions of each salt were prepared using sterile water (20-30 ppm hardness), to achieve the desired wt. % concentration. Two glucoheptonic acids were evaluated for antimicrobial activity against the same six microbes as Example 13. Sample L was α-glucoheptonic acid. Sample M was β73-glucoheptonic acid. Benzalkonium salts were also tested using the same procedure as set forth in Example 13. The samples were benzalkonium chloride (C12-C16) (Sample C), benzalkonium chloride (C12-C14) (Sample D), benzalkonium chloride in combination with a stoichiometric amount of α-glucoheptonate (Sample F), and benzalkonium chloride in combination with a molar excess of α-glucoheptonate (Sample N). Sample F was prepared by mixing and extensively heating a stoichiometric quantity (1:1) of sodium α-glucoheptonate with benzalkonium chloride, typified by the C12-14 alkyl chain. Sample N was prepared by simply blending benzalkonium chloride, typified by the C12-16 chain, with a molar excess of sodium α-glucoheptonate (1.6:1). Both Samples F and N contain sodium chloride.

Candida albicans = test system: Candida albicans
Protocol: as §1

Staphylococcus aureus = test system: Staphylococcus aureus
Protocol: as §1

[2] = 2.5 % w/w, contact time 10 minutes
[3] = 5.0 % w/w, contact time 5 minutes
[4] = 5.0 % w/w, contact time 10 minutes

| Structure (SMILES) | Log Reduction (LR) [1, 2] | Log Reduction (LR) [1, 3] | Log Reduction (LR) [1, 4] | Log Reduction (LR) (Candida albicans; [2]) | Log Reduction (LR) (Candida albicans; [4]) | Log Reduction (LR) (Staphylococcus aureus; [2]) | Log Reduction (LR) (Staphylococcus aureus; [3]) | Log Reduction (LR) (Staphylococcus aureus; [4]) | Log Reduction (LR) ([1]; 1.0 % w/w, contact time 10 minutes) | Log Reduction (LR) ([1]; 2.5 % w/w, contact time 5 minutes) | Log Reduction (LR) (Candida albicans; [3]) |
| --- | --- | --- | --- | --- | --- | --- | --- | --- | --- | --- | --- |
| O=C(O)[C@H](O)[C@H](O)[C@@H](O)[C@H](O)[C@H](O)CO [Sample L, α-glucoheptonic acid] | 3.39 | 3.05 | 3.50 | 3.65 | 3.00 |  |  |  |  |  |  |
| O=C(O)[C@H](O)[C@H](O)[C@@H](O)[C@H](O)[C@H](O)CO [Sample M, β73-glucoheptonic acid] | 3.50 | 3.39 | 3.47 |  | 4.00 | 3.13 | 4.07 | 4.13 | 3.47 | 3.17 | 3.47 |
